In PMC11413778, “Honokiol enhances the sensitivity of cetuximab in KRAS^G13D mutant colorectal cancer through destroying SNX3-retromer complex” (Theranostics, 2024):

Target: T1, SNX3 (Homo sapiens, UniProt O60493)
T1 construct: Recombinant Human SNX3 protein (ab109970)
Assay: biolayer interferometry (biotinylated SNX3 on SA biosensor), supported by CETSA in HCT116 and LoVo lysates
Format: binding

T1 sequence (O60493 2-162): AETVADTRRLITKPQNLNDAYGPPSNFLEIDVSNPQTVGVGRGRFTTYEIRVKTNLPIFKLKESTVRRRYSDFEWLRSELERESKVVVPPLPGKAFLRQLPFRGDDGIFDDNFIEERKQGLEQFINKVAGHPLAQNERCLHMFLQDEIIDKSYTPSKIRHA

Kd: 29 µM
Compound: C=CCc1ccc(O)c(-c2ccc(O)c(CC=C)c2)c1 [HNK, honokiol]
